Experimental data as given in PubChem BioAssay (NCI).
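The compound was tested at five concentrations on cells cultured in 96-well plates, with a 48-hour exposure period. At the TGI there is no net growth.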

Assays:
Assay in all cases: growth of human tumour cells (NCI), 48 h
MALME-3M melanoma = tested on: MALME-3M melanoma
MCF7 breast = tested on: MCF7 breast
MOLT-4 leukemia = tested on: MOLT-4 leukemia
NCI-H23 lung = tested on: NCI-H23 lung
SF-268 CNS = tested on: SF-268 CNS
UACC-257 melanoma = tested on: UACC-257 melanoma
UO-31 renal = tested on: UO-31 renal
MDA-MB-231 breast = tested on: MDA-MB-231 breast
PC-3 prostate = tested on: PC-3 prostate
SR leukemia = tested on: SR leukemia

| SMILES | TGI (MALME-3M melanoma) | TGI (MCF7 breast) | TGI (MOLT-4 leukemia) | TGI (NCI-H23 lung) | TGI (SF-268 CNS) | TGI (UACC-257 melanoma) | TGI (UO-31 renal) | TGI (MDA-MB-231 breast) | TGI (PC-3 prostate) | TGI (SR leukemia) |
| --- | --- | --- | --- | --- | --- | --- | --- | --- | --- | --- |
| CC(=O)[C@H]1CCC2[C@@H]3CC=C4C(O)C(OS(=O)(=O)O)CC[C@]4(C)C3CC[C@@]21C (stereo partly drawn) | > 100 µM | > 100 µM | > 100 µM | > 100 µM | > 100 µM | > 100 µM | > 100 µM | – | – | – |
| CC(C)c1nccn1Cc1ccc(Cl)cc1Cl | > 100 µM | > 100 µM | – | > 100 µM | > 100 µM | 95.9 µM | > 100 µM | > 100 µM | > 100 µM | > 100 µM |
| C=C(C(=O)OC)[C@H]1CC/C(C)=C/CC/C(C)=C/CC[C@@]2(C)O[C@@H]2C1 | 63.3 µM | 37.8 µM | 35.5 µM | 68.1 µM | – | 62.3 µM | 55 µM | 33.6 µM | 46.4 µM | – |
| CCOC(=O)C[n+]1ccc2c([nH]c3cc(OC)ccc32)c1C | > 100 µM | > 100 µM | > 100 µM | > 100 µM | > 100 µM | > 100 µM | > 100 µM | – | – | – |
| O=C(NCCCCNCCCNC(=O)OCc1ccccc1)OCc1ccccc1 | – | 71.2 µM | 73.6 µM | > 100 µM | > 100 µM | 41.3 µM | 93.1 µM | – | > 100 µM | 92.3 µM |
| CC1(C)CC2(C)OC(=N)C1(C#N)C2(C#N)C#N (stereo not drawn) | 31.4 µM | 24.8 µM | 38.1 µM | 21.4 µM | 33.8 µM | 19.9 µM | 16.2 µM | 21.2 µM | 30.3 µM | – |
| COC(=O)C1=C(C)NC2(C)OC(C)(O)C(C(C)=O)C12C(C)=O (stereo not drawn) | 50.9 µM | > 100 µM | > 100 µM | > 100 µM | > 100 µM | > 100 µM | – | > 100 µM | > 100 µM | – |
| c1ccc(CNc2ncnc3n[nH]nc23)cc1 | > 100 µM | > 100 µM | > 100 µM | > 100 µM | – | > 100 µM | > 100 µM | > 100 µM | > 100 µM | – |
| COc1cc(S(=O)(=O)N/N=C/c2cc(Br)c(O)c(OC)c2)c(OC)cc1NC(C)=O | – | > 100 µM | > 100 µM | > 100 µM | – | > 100 µM | > 100 µM | > 100 µM | > 100 µM | > 100 µM |
| O=c1c(-c2ccc(O)cc2)coc2cc(O)cc(O)c12 | > 100 µM | > 100 µM | > 100 µM | > 100 µM | > 100 µM | – | > 100 µM | – | > 100 µM | > 100 µM |
| COc1cccc(C2CC(=O)c3cccn32)c1 (stereo not drawn) | – | > 100 µM | > 100 µM | > 100 µM | > 100 µM | > 100 µM | > 100 µM | > 100 µM | > 100 µM | > 100 µM |
| COc1ccccc1N1C(=O)/C(=C\c2cccc(Oc3ccccc3)c2)S(=O)(=O)C1c1ccccc1 (stereo not drawn) | > 100 µM | > 100 µM | 32.8 µM | > 100 µM | – | > 100 µM | > 100 µM | > 100 µM | > 100 µM | 56.2 µM |
| CCOC(=O)c1c(-c2ccc(OC)c(O)c2)c(C#N)c(=S)n(C2OC(CO)C(O)C(O)C2O)c1-c1ccccc1 (stereo not drawn) | – | – | > 100 µM | > 100 µM | > 100 µM | > 100 µM | > 100 µM | – | > 100 µM | > 100 µM |
| O=C1OC2C=CC1C1(CCOC1=O)C2 (stereo not drawn) | > 100 µM | – | > 100 µM | > 100 µM | > 100 µM | > 100 µM | > 100 µM | – | – | > 100 µM |
| C[n+]1c(-c2ccc(/C=N/Nc3ccnc(N/N=C/c4ccc(-c5cn6ccccc6[n+]5C)cc4)n3)cc2)cn2ccccc21 | – | – | > 100 µM | – | > 100 µM | > 100 µM | 45.4 µM | > 100 µM | > 100 µM | > 100 µM |
| C=C1C(=O)O[C@H]2[C@H]([C@H](C)CCCC(C)=O)O[C@H]([C@@]3(C)CCC(=O)O3)C[C@@H]12 | 54.3 µM | – | > 100 µM | > 100 µM | 9.34 µM | > 100 µM | > 100 µM | > 100 µM | > 100 µM | > 100 µM |
| CC1(C)O[C@@H](CP(c2cccc3ccccc23)c2cccc3ccccc23)[C@H](CP(c2cccc3ccccc23)c2cccc3ccccc23)O1 | – | > 100 µM | > 100 µM | > 100 µM | > 100 µM | > 100 µM | > 100 µM | > 100 µM | > 100 µM | > 100 µM |
| Oc1ccc2ccccc2c1OCc1nnc(CCCCCCCCc2nnc(COc3c(O)ccc4ccccc34)o2)o1 | > 100 µM | > 100 µM | > 100 µM | > 100 µM | > 100 µM | > 100 µM | > 100 µM | > 100 µM | > 100 µM | – |
| COC1=CC(=O)c2c(cc(COP(=O)(N(C)CCBr)N(C)CCBr)n2C)C1=O | 2.95 µM | 8.42 µM | > 100 µM | 2.28 µM | > 38.2 µM | 12.9 µM | 2.52 µM | 15.3 µM | > 83.2 µM | – |
| CN(CCN(C)C(=O)CCn1ccc(=O)[nH]c1=O)C(=O)CCn1ccc(=O)[nH]c1=O | > 100 µM | – | > 100 µM | > 100 µM | > 100 µM | – | > 100 µM | – | – | > 100 µM |
| O=C(O)CCCc1ccc2c(c1)CC1(C2)Cc2ccc(CCCC(=O)O)cc2C1 | > 100 µM | > 100 µM | > 100 µM | > 100 µM | – | > 100 µM | > 100 µM | > 100 µM | > 100 µM | > 100 µM |
| CCCCCCc1cn([C@H]2C[C@H](O)[C@@H](CO)O2)c(=O)[nH]c1=O | > 100 µM | > 100 µM | – | > 100 µM | > 100 µM | > 100 µM | > 100 µM | – | – | – |
| CC1(C)Oc2ccc3c(=O)c4ccccc4oc3c2C1C(=O)O (stereo not drawn) | > 100 µM | > 100 µM | > 100 µM | > 100 µM | > 100 µM | > 100 µM | – | > 100 µM | > 100 µM | – |
| O=C(C=P(c1ccccc1)(c1ccccc1)c1ccccc1)c1ccc(-c2ccc(F)cc2F)cc1 | 7.17 µM | 7.95 µM | – | 12.2 µM | 15.5 µM | 8.57 µM | 4.08 µM | 4.92 µM | 17.5 µM | 7.55 µM |
